The values below come from patent US11535630B2, “Apelin receptor (APJ) agonists and uses thereof” (Research Triangle Institute, priority 2015, dated 2022).

The first assay has as its target T1, apelin receptor (APJ) (Homo sapiens, UniProt P35414).
T1 sequence (P35414 1-380): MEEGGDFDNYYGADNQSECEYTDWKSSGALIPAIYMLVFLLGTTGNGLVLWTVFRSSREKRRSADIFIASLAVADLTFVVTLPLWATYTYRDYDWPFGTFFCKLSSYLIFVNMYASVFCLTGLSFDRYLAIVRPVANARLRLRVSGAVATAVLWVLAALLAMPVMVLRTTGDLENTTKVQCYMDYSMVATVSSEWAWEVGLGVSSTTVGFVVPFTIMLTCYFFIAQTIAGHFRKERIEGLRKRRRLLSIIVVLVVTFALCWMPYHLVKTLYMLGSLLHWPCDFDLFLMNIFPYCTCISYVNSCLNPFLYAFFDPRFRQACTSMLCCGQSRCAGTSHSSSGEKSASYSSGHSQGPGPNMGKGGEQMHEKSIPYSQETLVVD
Nature of the assay: In vitro apelin agonist activity (methods of Giddings et al., Apelin-13 as positive control). Type of assay: cell-based. The settings on record: EC50 (nM) Ave, in vitro apelin agonist activity, methods of Giddings et al., Apelin-13 as positive control. The text has this: Characterization of the Apelin Agonist Activity of the Compounds
1:39-47, the contents of which are hereby incorporated by reference in its entirety. Using the methods described in Giddings et al. and Apelin-13 as a positive control.
A word on the EC50: it is the concentration at which the effect is half-maximal. Turning to `COc1cccc(OC)c1-c1cc(C(=O)N[C@@H](CCc2ccccc2)C(=O)O)nn1CC(C)C` [compound 311, (2S)-2-{[5-(2,6-dimethoxyphenyl)-1-(2-methylpropyl)-1H-pyrazol-3-yl]formamido}-4-phenylbutanoic acid], the EC50 was > 10000 nM.

Still in this assay, the particulars now being: in vitro apelin agonist activity, methods of Giddings et al., Apelin-13 as positive control; read-out: EC50 (nM) Ave.
With `C[C@H](C[C@@H](CC(=O)O)NC(=O)c1cc(-c2ccccc2C(C)(F)F)n(C2CCCC2)n1)N1C[C@@H](F)[C@H](F)C1` (mixture of isomers) [compound 599, (3S,5R)-3-({1-cyclopentyl-5-[2-(1,1-difluoroethyl)phenyl]-1H-pyrazol-3-yl}formamido)-5-[trans-3,4-difluoropyrrolidin-1-yl]hexanoic acid], the EC50 was 24 nM. On the same count and under the same terms, under `CC(F)(F)c1ccccc1-c1cc(C(=O)N[C@@H](CCN2C[C@H](F)[C@@H](F)C2)CC(=O)O)nn1C1CCCC1` (stereo in doubt) [compound 594, (3S)-3-({1-cyclopentyl-5-[2-(1,1-difluoroethyl)phenyl]-1H-pyrazol-3-yl}formamido)-5-[trans-3,4-difluoropyrrolidin-1-yl]pentanoic acid] stands 44 nM; under `COc1cccc(OC)c1-c1cc(C(=O)N[C@H](CC(=O)O)Cc2ccccc2)nn1CC(C)C` [compound 297, (3S)-3-{[5-(2,6-dimethoxyphenyl)-1-(2-methylpropyl)-1H-pyrazol-3-yl]formamido}-4-phenylbutanoic acid], > 10000 nM. On to `COc1cccc(OC)c1-c1cc(C(=O)N[C@@H](CCc2ccccc2)CC(=O)O)nn1-c1ccc(F)cc1` [compound 299, (3S)-3-{[5-(2,6-dimethoxyphenyl)-1-(4-fluorophenyl)-1H-pyrazol-3-yl]formamido}-5-phenylpentanoic acid], for which the EC50 worked out at 2910 nM. Still for that read-out and setting: with `COc1cccc(OC)c1-c1cc(C(=O)N[C@H](CC(=O)O)c2ccccc2)nn1CC(C)C` [compound 300, (3R)-3-{[5-(2,6-dimethoxyphenyl)-1-(2-methylpropyl)-1H-pyrazol-3-yl]formamido}-3-phenylpropanoic acid] the figure was > 10000 nM; with `COc1cccc(OC)c1-c1cc(C(=O)N[C@@H](CCCC2CCCCC2)CC(=O)O)nn1CC(C)C` [compound 301, (3S)-6-cyclohexyl-3-{[5-(2,6-dimethoxyphenyl)-1-(2-methylpropyl)-1H-pyrazol-3-yl]formamido}hexanoic acid], 2590 nM; with `COc1cccc(OC)c1-c1cc(C(=O)N[C@@H](Cc2ccccc2)C(=O)NC2CCC2)nn1CC(C)C` [compound 302, (2S)-N-cyclobutyl-2-{[5-(2,6-dimethoxyphenyl)-1-(2-methylpropyl)-1H-pyrazol-3-yl]formamido}-3-phenylpropanamide], > 10000 nM. Turning to `COc1cccc(OC)c1-c1cc(C(=O)N[C@@H](CCN2CCOCC2)CC(=O)OC(C)(C)C)nn1C1CCCC1` [compound 303, tert-butyl (3S)-3-{[1-cyclopentyl-5-(2,6-dimethoxyphenyl)-1H-pyrazol-3-yl]formamido}-5-(morpholin-4-yl)pentanoate], the EC50 was > 10000 nM. Consider `COc1cccc(OC)c1-c1cc(C(=O)N[C@@H](CCN2CCN(C)CC2)CC(=O)OC(C)(C)C)nn1C1CCCC1` [compound 304, tert-butyl (3S)-3-{[1-cyclopentyl-5-(2,6-dimethoxyphenyl)-1H-pyrazol-3-yl]formamido}-5-(4-methylpiperazin-1-yl)pentanoate], for which the EC50 is > 10000 nM. Still for that read-out and setting: with `CCN(CC)CC[C@@H](CC(=O)OC(C)(C)C)NC(=O)c1cc(-c2c(OC)cccc2OC)n(C2CCCC2)n1` [compound 305, tert-butyl (3S)-3-{[1-cyclopentyl-5-(2,6-dimethoxyphenyl)-1H-pyrazol-3-yl]formamido}-5-(diethylamino)pentanoate] the figure was > 10000 nM. Same read-out and setting: with `COc1cccc(OC)c1-c1cc(C(=O)N[C@@H](CCNCc2ccncc2)CC(=O)OC(C)(C)C)nn1C1CCCC1` [compound 306, tert-butyl (3S)-3-{[1-cyclopentyl-5-(2,6-dimethoxyphenyl)-1H-pyrazol-3-yl]formamido}-5-[(pyridin-4-ylmethyl)amino]pentanoate] the figure was > 10000 nM; with `COc1cccc(OC)c1-c1cc(C(=O)N[C@@H](CCN2CCN(C)CC2)CC(=O)O)nn1C1CCCC1` [compound 308, (3S)-3-{[1-cyclopentyl-5-(2,6-dimethoxyphenyl)-1H-pyrazol-3-yl]formamido}-5-(4-methylpiperazin-1-yl)pentanoic acid], > 10000 nM. Regarding `COc1cccc(OC)c1-c1cc(C(=O)N[C@@H](CCNCc2ccncc2)CC(=O)O)nn1C1CCCC1` [compound 310, (3S)-3-{[1-cyclopentyl-5-(2,6-dimethoxyphenyl)-1H-pyrazol-3-yl]formamido}-5-[(pyridin-4-ylmethyl)amino]pentanoic acid], the EC50 was > 10000 nM.

With `COc1cccc(OC)c1-c1cc(C(=O)N[C@@H](CCN2CCOCC2)CC(=O)NC2CCC2)nn1C1CCCC1` [compound 312, (3S)-N-cyclobutyl-3-{[1-cyclopentyl-5-(2,6-dimethoxyphenyl)-1H-pyrazol-3-yl]formamido}-5-(morpholin-4-yl)pentanamide], the EC50 came out at 343 nM. The same measure, in the same setting: under `CCN(CC)CC[C@@H](CC(=O)NC1CCC1)NC(=O)c1cc(-c2c(OC)cccc2OC)n(C2CCCC2)n1` [compound 314, (3S)-N-cyclobutyl-3-{[1-cyclopentyl-5-(2,6-dimethoxyphenyl)-1H-pyrazol-3-yl]formamido}-5-(diethylamino)pentanamide] stands 1840 nM. On the same count and under the same terms, with `COc1cccc(OC)c1-c1cc(C(=O)N[C@H]2CCN(Cc3ccncc3)C(=O)C2)nn1C1CCCC1` [compound 315, 1-cyclopentyl-5-(2,6-dimethoxyphenyl)-N-[(4S)-2-oxo-1-(pyridin-4-ylmethyl)piperidin-4-yl]-1H-pyrazole-3-carboxamide] the figure was > 10000 nM. As to `COc1cccc(OC)c1-c1cc(C(=O)N[C@@H](CCN2CCCC2)CC(=O)OC(C)(C)C)nn1C1CCCC1` [compound 316, tert-butyl (3S)-3-{[1-cyclopentyl-5-(2,6-dimethoxyphenyl)-1H-pyrazol-3-yl]formamido}-5-(pyrrolidin-1-yl)pentanoate], the EC50 was > 10000 nM. Same read-out and setting: with `COc1cccc(OC)c1-c1cc(C(=O)N[C@@H](CCN2CCCCCC2)CC(=O)OC(C)(C)C)nn1C1CCCC1` [compound 319, tert-butyl (3S)-5-(azepan-1-yl)-3-{[1-cyclopentyl-5-(2,6-dimethoxyphenyl)-1H-pyrazol-3-yl]formamido}pentanoate] the figure was 3510 nM; with `COc1cccc(OC)c1-c1cc(C(=O)N[C@@H](CCN2C3CCC2CC3)CC(=O)OC(C)(C)C)nn1C1CCCC1` [compound 320, tert-butyl (3S)-5-{7-azabicyclo[2.2.]heptan-7-yl}-3-{[1-cyclopentyl-5-(2,6-dimethoxyphenyl)-1H-pyrazol-3-yl]formamido}pentanoate], > 10000 nM. The same measure, in the same setting: under `COc1cccc(OC)c1-c1cc(C(=O)N[C@H](CC(=O)NC2CCC2)Cc2ccccc2)nn1CC(C)C` [compound 321, (3S)-N-cyclobutyl-3-{[5-(2,6-dimethoxyphenyl)-1-(2-methylpropyl)-1H-pyrazol-3-yl]formamido}-4-phenylbutanamide] stands 114 nM; under `COc1cccc(OC)c1-c1cc(C(=O)N[C@@H](CCN2CCCCCC2)CC(=O)NC2CCC2)nn1C1CCCC1` [compound 324, (3S)-5-(azepan-1-yl)-N-cyclobutyl-3-{[1-cyclopentyl-5-(2,6-dimethoxyphenyl)-1H-pyrazol-3-yl]formamido}pentanamide], 107 nM. The same measure, in the same setting: under `COc1cccc(OC)c1-c1cc(C(=O)N[C@@H](CCN2C(C)CCCC2C)CC(=O)NC2CCC2)nn1C1CCCC1` (stereo partly drawn) [compound 329, (3S)-N-cyclobutyl-3-{[1-cyclopentyl-5-(2,6-dimethoxyphenyl)-1H-pyrazol-3-yl]formamido}-5-(2,6-dimethylpiperidin-1-yl)pentanamide] stands 170 nM; under `COc1cccc(OC)c1-c1cc(C(=O)N[C@@H](CCN2CCCCC2)CC(=O)N(C)C2CCC2)nn1C1CCCC1` [compound 331, (3S)-N-cyclobutyl-3-{[1-cyclopentyl-5-(2,6-dimethoxyphenyl)-1H-pyrazol-3-yl]formamido}-N-methyl-5-(piperidin-1-yl)pentanamide], 353 nM; under `COc1cccc(OC)c1-c1cc(C(=O)N[C@@H](CCN2CCCCC2)CC(=O)NC2CCOCC2)nn1C1CCCC1` [compound 332, (3S)-3-{[1-cyclopentyl-5-(2,6-dimethoxyphenyl)-1H-pyrazol-3-yl]formamido}-N-(oxan-4-yl)-5-(piperidin-1-yl)pentanamide], 391 nM.

Take `COc1cccc(OC)c1-c1cc(C(=O)N[C@@H](CCN2CCCCC2)CC(=O)NC(C)(C)C)nn1C1CCCC1` [compound 333, (3S)-N-tert-butyl-3-{[1-cyclopentyl-5-(2,6-dimethoxyphenyl)-1H-pyrazol-3-yl]formamido}-5-(piperidin-1-yl)pentanamide]: the EC50 was determined as 2530 nM. Same read-out and setting: with `COCCN(C)C(=O)C[C@H](CCN1CCCCC1)NC(=O)c1cc(-c2c(OC)cccc2OC)n(C2CCCC2)n1` [compound 334, (3S)-3-{[1-cyclopentyl-5-(2,6-dimethoxyphenyl)-1H-pyrazol-3-yl]formamido}-N-(2-methoxyethyl)-N-methyl-5-(piperidin-1-yl)pentanamide] the figure was 6570 nM.
